Test results reported in patent US20260376311A1, “Subject selection for 11B-HSD1 inhibitor treatment” (ACTINOGEN MEDICAL LIMITED, priority 2022, published 2026).

Key:
[1] = Clinical Dementia Rating Scale-Sum of Boxes (CDR-SB), Phase II placebo-controlled study, Biomarker Extension Study; type: in vivo, human; details: 12 weeks
Protocol: (§1) A Phase II, Double-Blind, 12-Week, Randomised, Placebo-Controlled Study was conducted to Assess the Safety, Tolerability and Efficacy of Xanamem™ in Subjects with Mild Dementia due to Alzheimer's Disease (AD).
(§2) Study Design: This is a Phase II, randomized, multi-centre, double-blind, placebo-controlled, proof-of-concept study to assess the safety, tolerability and efficacy of oral Xanamem™ QD in adult subjects with mild dementia due to AD.
(§3) At the Baseline visit (Week 0), eligible subjects will be randomised on a 1:1 ratio to receive either 10 mg Xanamem™ administered orally, QD (treatment group) or matching placebo (placebo group). Subjects returned to the study site for the Interim visits (Week 4 and Week 8), EOT (Week 12) and Follow-up (4 weeks post last dose of study drug) visits, at which study assessments were performed.
(§4) Xanamem™ is formulated in green and cream-coloured size 3, Coni-Snap shaped gelatin capsules as an excipient blend at a dose of 10 mg (see Table 1). The dose of Xanamen™ will be 10 mg administered orally, QD.
The Washington University CDR is a global assessment instrument that yields global and SOB scores, with the global score regularly used in clinical and research settings to stage dementia severity. The CDR-SOB score has been considered a more detailed quantitative general index than the global score and provides more information than the global CDR score in participants with mild dementia. CDR Global results are relevant for subject eligibility and thus will also be performed at the Screening visit.
The CDR is obtained through semi-structured interviews of patients and informants, and cognitive functioning is rated in six domains of functioning: memory, orientation, judgement and problem solving, community affairs, home and hobbies, and personal care. Each domain is rated on a five-point scale of functioning as follows: 0, no impairment; 0.5, questionable impairment; 1, mild impairment; 2, moderate impairment; and 3, severe impairment.
The global CDR score is computed via an algorithm. CDR Global score is calculated using the Washington University online algorithm. The CDR-SOB is based on summing each of the domain box scores, with scores ranging from 0-18.
(§5) A Non-interventional Biomarker Analysis Extension Protocol study was conducted for Participants who were previously enrolled in the above described Phase II, Double-Blind, 12-Week, Randomised, Placebo-Controlled Study to Assess the Safety, Tolerability and Efficacy of Xanamem™ in Subjects with Mild Dementia due to Alzheimer's Disease (AD). The objectives for study were: • 1. To analyze the levels of biomarkers of Alzheimer's Disease (AD) proteins, neurodegeneration, and neuro-inflammation in stored plasma samples from participants with mild dementia due to AD enrolled in the previous clinical trial (at baseline and Week 12 and their change from baseline for each treatment) • 2. To examine the change from baseline in biomarkers by treatment group to Week 12 by baseline pTau181 quartile categorization/level • 3. To explore the efficacy of Xanamem in relationship to quartiles categorization/level of pTau181 levels at baseline • 4. To correlate the changes from baseline in biomarkers by treatment with changes in cognitive endpoints
From above described clinical study, the extant blood samples of 72 patients were subjected to further disease biomarker analysis. A biomarker laboratory (blinded to treatment assignment), analyzed those blood samples to determine the biomarker variable pTau181. […]

[2] = Safety of drug intake when fasted; type: in vivo, human; details: oral, in words
pTau181 = test: Biomarker analysis of plasma pTau181, Biomarker Extension Study; type: in vivo, human; details: 10 mg QD
Protocol: as §5
(§6) From above described clinical study, the extant blood samples of 72 patients were subjected to further disease biomarker analysis. A biomarker laboratory (blinded to treatment assignment), analyzed those blood samples to determine the biomarker variable pTau181.
(§7) For the biomarker p-Tau181, change from baseline to Week 12 were analyzed by ANCOVA with the following models: • treatment as fixed effect and baseline biomarker value as covariate; • treatment, baseline p-Tau181 (low/high) category, and treatment-by-baseline p-Tau181 (low/high) category as fixed effects, and baseline biomarker value as covariate; • treatment, baseline p-Tau181 (≤10.2 pg/mL/>10.2 pg/mL) category, and treatment-by-baseline p-Tau181 (≤10.2 pg/mL/>10.2 pg/mL) category as fixed effects, and baseline biomarker value as covariate; and • treatment, baseline MMSE (less severe (≥24)/more severe (≤23)) category, and treatment-by-baseline MMSE (less severe (≥24)/more severe (≤23)) category as fixed effects, and baseline biomarker value as covariate.

[3] = Mini-Mental Status Examination (MMSE), Phase II placebo-controlled study, Biomarker Extension Study; type: in vivo, human
Protocol: as §1, §2, §3, §4
The MMSE is a 30-point questionnaire that is used extensively in clinical and research settings to measure cognitive impairment and is commonly used in medicine and allied health to screen for dementia. It is also used to estimate the severity and progression of cognitive impairment and to follow the course of cognitive changes in an individual over time; thus making it an effective way to document a participant's response to treatment. For this study, MMSE results are relevant for subject eligibility and performed at Screening visit.
as §5, §6
An analysis of overall efficacy was undertaken of the population (n=72).
as §7, with “cognitive efficacy variables (CDR-SB and MMSE),” for “biomarker p-Tau181,”, “was” for “were”, “cognitive efficacy” for “biomarker”

[4] = Pharmacokinetics of Xanamem (Phase I peak concentrations; fed/fasted bioavailability); type: in vivo, human; details: oral; with meals vs fasted; in words
[5] = comparison with Xanamem treatment effect; cited from earlier work
[6] = 10 mg QD oral, pTau >6.74 pg/mL subgroup, N = 34
[7] = 10 mg QD oral, pTau > 10.2 pg/mL, N = 9
[8] = 10 mg QD oral, pTau ≤ 10.2 pg/mL, N = 59
[9] = Xanamem vs placebo, pTau>6.74 pg/mL subgroup, 10 mg QD
[10] = baseline to Week 12, sample size 28 and 26
[11] = 10 mg QD oral, 12 weeks, baseline MMSE 20-23, N = 46
[12] = 10 mg QD oral, 12 weeks, baseline MMSE 24-26, N = 26

## O=C(c1csc(-c2cn[nH]c2)c1)N1[C@@H]2CC[C@H]1C[C@](O)(c1ncccn1)C2 [Xanamem, (5-(1H-Pyrazol-4-yl)thiophen-3-yl)(3-hydroxy-3-(pyrimidin-2-yl)-8-azabicyclo[3.2.1]octan-8-yl)methanone]
[1]; 10 mg QD oral, N = 9, desired change down, placebo 0.5
  CDR-SB change, pTau pg/mL > 10.2 (median): −0.3
[1]; 10 mg QD oral, N = 9, desired change down, placebo 0.8
  CDR-SB change, pTau pg/mL > 10.2 (mean): 0.1
[1]; 10 mg QD oral, N = 34, desired change down, placebo 0.0
  CDR-SB change, pTau units ≤ 6.74 (median): 0.0
[1]; 10 mg QD oral, N = 34, desired change down, placebo 0.8
  CDR-SB change, pTau > 6.74 pg/mL (median): 0.0
[1]; 10 mg QD oral, N = 34, desired change down, placebo 1.0
  CDR-SB change, pTau > 6.74 pg/mL (mean): 0.4
[1]; 10 mg QD oral, N = 34, desired change down, placebo −0.1
  CDR-SB change, pTau units ≤ 6.74 (mean): 0.5
[1]; 10 mg QD oral, N = 59, desired change down, placebo 0.0
  CDR-SB change, pTau ≤ 10.2 pg/mL (median): 0.0
[1]; 10 mg QD oral, N = 59, desired change down, placebo 0.4
  CDR-SB change, pTau ≤ 10.2 pg/mL (mean): 0.5
[1]; [6]
  Cohen's d for CDR-SB (mean), Xanamem vs placebo: 0.41
  p value for CDR-SB (mean), Xanamem vs placebo: 0.09
[1]; 10 mg QD oral, pTau >6.74 pg/mL subgroup, Xanamem n = 16, desired change down, placebo 0.8
  CDR-SB units (median), change: 0.0 CDR-SB units
[1]; 10 mg QD oral, pTau >6.74 pg/mL subgroup, Xanamem n = 16, desired change down, placebo 1.0
  CDR-SB units (mean), change: 0.4 CDR-SB units
[1]; [7]
  Cohen's d for CDR-SB (mean), Xanamem vs placebo: 0.62
  p value for CDR-SB (mean), Xanamem vs placebo: 0.33
[1]; 10 mg QD oral, pTau units ≤ 6.74, N = 34
  Cohen's d for CDR-SB (mean), Xanamem vs placebo: 0.40
[1]; 10 mg QD oral, pTau ≤ 6.74 pg/mL, N = 34
  p value for CDR-SB (mean), Xanamem vs placebo: 0.08
[1]; [8]
  Cohen's d for CDR-SB (mean), Xanamem vs placebo: −0.06
  p value for CDR-SB (mean), Xanamem vs placebo: 0.78
[1]; [9]
  treatment effect on CDR-SB, mean: 0.6 points
  treatment effect on CDR-SB, median: 0.8 points
[2]
  safety of drug intake when fasted: no safety concern
pTau181; sample size 28 (Xanamem) and 26 (placebo), placebo −8.59
  change in biomarker pTau181 from baseline to Week 12: −2.37
pTau181; baseline to Week 12, in words
  treatment trend in change of pTau181: no treatment trend was observed
pTau181; [10]
  Cohen's d for change in pTau181, Xanamem vs placebo: 0.08
  p for change in pTau181, Xanamem vs placebo: 0.40
[3]; [11]
  Cohen's d for MMSE (mean), Xanamem vs placebo: 0.93
  p value for MMSE (mean), Xanamem vs placebo: 0.02
[3]; 10 mg QD oral, 12 weeks, baseline MMSE 20-23, N = 46, desired change up, placebo −0.3
  MMSE change, MMSE 20-23 (mean): 1.7
[3]; 10 mg QD oral, 12 weeks, baseline MMSE 20-23, N = 46, desired change up, placebo −1.0
  MMSE change, MMSE 20-23 (median): 2.0
[3]; [12]
  Cohen's d for MMSE (mean), Xanamem vs placebo: −0.17
  p value for MMSE (mean), Xanamem vs placebo: 0.88
[3]; 10 mg QD oral, 12 weeks, baseline MMSE 24-26, N = 26, desired change up, placebo −1.0
  MMSE change, MMSE 24-26 (median): −1.0
[3]; 10 mg QD oral, 12 weeks, baseline MMSE 24-26, N = 26, desired change up, placebo −1.4
  MMSE change, MMSE 24-26 (mean): −1.5
[3]; overall population n=72, 10 mg QD
  Cohen's d for MMSE, Xanamem over placebo: 0.35
[3]; overall population n=72, Xanamem n=37, 10 mg QD, placebo (n=35) decrease of 0.6
  increase in the mean MMSE score: 0.3
[4]
  bioavailability in fed state: higher bioavailability observed when taken in a fed state

## CC12CC3CC(C)(C1)CC(N)(C3)C2 [memantine]
[5]
  Cohen's d of approved oral anticholinesterases or memantine: 0.2-0.3
